According to ChEMBL document CHEMBL1201862, “PubChem BioAssay data set” (2004):
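How tested: cells in 96-well plates exposed to compound for 48 hours at five concentrations. At the GI50, growth is halved.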 The source made the active and inactive calls. Rule as the data show it: active = GI50 up to about 1.1 µM and inactive = higher.

What was measured:
Test in all cases: NCI tumour cell line growth inhibition, 48 h
DMS-114 = tested on: DMS-114
XF498 = tested on: XF498
HOP-18 = tested on: HOP-18
DLD-1 = tested on: DLD-1
RXF 631 = tested on: RXF 631
M19-MEL = tested on: M19-MEL
DMS-273 = tested on: DMS-273
SNB-78 = tested on: SNB-78

Measured: GI50

O=C(CCn1[nH]c(=O)c(Cl)c(Cl)c1=O)NNC(=O)C[n+]1ccccc1
inactive: DMS-114 > 100 µM | XF498 > 100 µM | HOP-18 > 100 µM | DLD-1 > 100 µM | RXF 631 > 100 µM | M19-MEL > 100 µM | DMS-273 > 100 µM

O=c1[nH]cc(C(F)(C(F)(F)F)C(F)(F)F)c(=O)[nH]1
inactive: DMS-114 > 100 µM | XF498 > 100 µM | HOP-18 > 100 µM | SNB-78 > 100 µM | DLD-1 > 100 µM | RXF 631 > 100 µM | M19-MEL > 100 µM | DMS-273 > 100 µM

Cn1nc(-c2ccccc2)c(C(=O)/C=C/c2ccc(F)cc2)c(N2CCCCC2)c1=O
inactive: DMS-114 3.86 µM | XF498 21.1 µM | HOP-18 5.66 µM | DLD-1 3.61 µM | RXF 631 8.61 µM | M19-MEL 8.36 µM | DMS-273 4.03 µM

COc1ccc(Cc2nc3ccccc3s2)cc1OC
inactive: DMS-114 15.7 µM | XF498 15.3 µM | HOP-18 23.9 µM | SNB-78 19.8 µM | DLD-1 16.6 µM | RXF 631 17.7 µM | M19-MEL 15.6 µM | DMS-273 15.6 µM

O=[N+]([O-])c1cc([N+](=O)[O-])c(C(Cl)C(Cl)c2ccccc2)cc1C(Cl)C(Cl)c1ccccc1 (stereo unspecified)
inactive: DMS-114 1.7 µM | XF498 1.87 µM | HOP-18 1.46 µM | SNB-78 2.99 µM | DLD-1 1.71 µM | RXF 631 2.07 µM | M19-MEL 1.83 µM | DMS-273 2.03 µM

CC(Oc1ccc2cc(C(=O)c3ccccc3)c(=O)oc2c1)C(=O)O (stereo unspecified)
inactive: DMS-114 > 100 µM | XF498 > 100 µM | HOP-18 > 100 µM | SNB-78 > 100 µM | RXF 631 > 100 µM | M19-MEL > 100 µM

CCOC(=O)Cc1nc2ccccc2s1
inactive: XF498 14.8 µM | HOP-18 24.8 µM | SNB-78 18.1 µM | DLD-1 16.6 µM | RXF 631 16.8 µM | M19-MEL 18.4 µM | DMS-273 22.6 µM
